Consider 27 compounds from patent US9056865B2, “Pyridine-2-derivatives as smoothened receptor modulators” (Pfizer Inc., priority 2010, dated 2015).

One experiment addresses human Smo (Homo sapiens (Human), UniProt Q99835). Kind of experiment: Smo radioligand competition binding assay. The following applies: for inhibition at 0.05 µM: 0.05 μM test compound, read-out: Smo % inh. @ 0.05 μM. The procedure, abridged:
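Membranes from HEK293 cells expressing surface human Smo 181-781 (40 μg protein/well) incubated 2 h at room temperature with test compound and tritiated Smo antagonist (3 nM), pH 7.5 Tris buffer; filtration and scintillation counting. Non-specific binding defined with 30 μM cold antagonist; IC50 from four-parameter sigmoidal fit.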
Background: In a radioligand displacement assay an active substance lowers the binding of a labelled ligand.

Another experiment concerns Gli-Luc/MEF cells. As to the kind of experiment: Gli-Luc/MEF assay. It is filed as cell-based, mouse. The following applies: Mus musculus, MEF; Shh-stimulated luciferase, 48 hours. Put shortly:
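Mouse embryonic fibroblasts from Gli-Luc transgenic mice (luciferase under Gli response element) dosed with compounds (final […], 3-fold series), then stimulated with recombinant mouse Shh at final 2 μg/mL. After 48 h at 37 °C, luminescence read by Bright-Glo; IC50 from inhibition of Shh-induced signal.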

Chain of human Smo (Q99835 181-787): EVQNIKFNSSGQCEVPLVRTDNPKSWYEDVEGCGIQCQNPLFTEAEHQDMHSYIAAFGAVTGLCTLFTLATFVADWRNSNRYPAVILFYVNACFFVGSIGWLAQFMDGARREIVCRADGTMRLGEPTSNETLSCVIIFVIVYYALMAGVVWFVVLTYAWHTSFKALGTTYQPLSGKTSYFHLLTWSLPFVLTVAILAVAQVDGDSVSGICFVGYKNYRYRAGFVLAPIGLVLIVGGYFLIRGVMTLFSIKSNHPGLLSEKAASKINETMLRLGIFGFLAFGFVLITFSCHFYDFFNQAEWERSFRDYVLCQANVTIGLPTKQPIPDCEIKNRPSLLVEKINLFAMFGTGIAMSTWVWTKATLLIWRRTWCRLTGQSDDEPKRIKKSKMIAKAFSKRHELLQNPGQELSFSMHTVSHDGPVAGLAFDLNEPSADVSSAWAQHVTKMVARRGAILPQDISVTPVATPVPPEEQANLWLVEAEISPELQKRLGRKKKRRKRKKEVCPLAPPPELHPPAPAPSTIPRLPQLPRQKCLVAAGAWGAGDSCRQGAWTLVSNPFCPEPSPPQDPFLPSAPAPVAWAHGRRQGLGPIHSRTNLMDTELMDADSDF

One may read the IC50 as the concentration that gives 50% inhibition. Higher therefore signals a need for much substance. For `Cc1cccnc1-c1cc(N2CCC(C(=O)Nc3cccc(CO)n3)CC2)ncc1Cl` [Example A-75, 1-(5′-chloro-3-methyl-2,4′-bipyridin-2′-yl)-N-[6-(hydroxymethyl)pyridin-2-yl]piperidine-4-carboxamide], at human Smo, the half-inhibitory concentration (IC50) came to 93.3 nM and the inhibition at 0.05 µM stood at 88.6%. This compound returned an IC50 in the experiment with Gli-Luc/MEF cells of 47.9 nM.
`Cc1cccnc1-c1cc(N2CCN(C(=O)C(C)C)CC2)ncc1Cl` [Example A-44, 5′-chloro-2′-(4-isobutyrylpiperazin-1-yl)-3-methyl-2,4′-bipyridine]: on human Smo, the IC50 was 128 nM and the inhibition at 0.05 µM was 82.9%. For the same compound, in the experiment on Gli-Luc/MEF cells, it took 80.2 nM to reach half-maximal inhibition (IC50).
As to `COCCC(=O)N1CCN(c2cc(-c3ncccc3C)c(Cl)cn2)CC1` [Example A-29, 5′-chloro-2′-[4-(3-methoxypropanoyl)piperazin-1-yl]-3-methyl-2,4′-bipyridine], at human Smo, the half-inhibitory concentration (IC50) turned out to be 52.3 nM and the inhibition at 0.05 µM was determined as 89.3%. Moreover, in the experiment on Gli-Luc/MEF cells, the IC50 amounted to 42.5 nM.
Turning to `Cc1cnc(-c2cc(N3CCC(O)CC3)ncc2Cl)c(C)c1` [Example A-94, 1-(5′-chloro-3,5-dimethyl-2,4′-bipyridin-2′-yl)piperidin-4-ol], on human Smo, the IC50 came out at 44.2 nM and the inhibition at 0.05 µM stood at 88%. Besides, the IC50 in the experiment with Gli-Luc/MEF cells is 28.4 nM.
In the same order, the values of `Cc1cccnc1-c1cc(N2CCC(C(=O)N[C@H]3CC[C@H](CO)CC3)CC2)ncc1Cl` [Example A-89, 1-(5′-chloro-3-methyl-2,4′-bipyridin-2′-yl)-N-[trans-4-(hydroxymethyl)cyclohexyl]piperidine-4-carboxamide] are 28.5 nM, 94.6% and 24.4 nM.
With `COC(=O)N1CCN(c2ncc(Cl)c(-c3ncccc3C)n2)CC1` [Example A-36, methyl 4-[5-chloro-4-(3-methylpyridin-2-yl)pyrimidin-2-yl]piperazine-1-carboxylate], on human Smo, the IC50 is 246 nM and the inhibition at 0.05 µM was determined as 72.7%. Also, the IC50 in the experiment with Gli-Luc/MEF cells was 109 nM.
Turning to `CC(C)(O)CC(=O)NC1CCN(c2ccc(Cl)c(-c3ccccn3)n2)CC1` [Example A-131, N-[1-(3-chloro-2,2′-bipyridin-6-yl)piperidin-4-yl]-3-hydroxy-3-methylbutanamide], at human Smo, the IC50 worked out at 30.5 nM and the inhibition at 0.05 µM worked out at 92.7%. The compound further showed an IC50 in the experiment with Gli-Luc/MEF cells of 20.7 nM.
As to `Cc1cccnc1-c1cc(N2CCC(C(=O)NCCc3c[nH]cn3)CC2)ncc1Cl` [Example A-87, 1-(5′-chloro-3-methyl-2,4′-bipyridin-2′-yl)-N-[2-(1H-imidazol-4-yl)ethyl]piperidine-4-carboxamide], at human Smo, the IC50 was 134 nM and the inhibition at 0.05 µM was determined as 81.8%. In the experiment with Gli-Luc/MEF cells, this compound returned an IC50 of 123 nM.
For `Cc1cccnc1-c1cc(N2CC(C(=O)N(C)[C@@H]3CS(=O)(=O)C[C@H]3O)C2)ncc1Cl` [Example A-69, 1-(5′-chloro-3-methyl-2,4′-bipyridin-2′-yl)-N-[(3S,4S)-4-hydroxy-1,1-dioxidotetrahydro-3-thienyl]-N-methylazetidine-3-carboxamide], on human Smo, the concentration for half-maximal inhibition (IC50) amounted to 189 nM and the inhibition at 0.05 µM is 74.4%. Also, in the experiment with Gli-Luc/MEF cells, the IC50 worked out at 148 nM.
Regarding `Cc1cccnc1-c1cc(N2CCC(C(=O)N3CCC(Nc4ccccn4)CC3)CC2)ncc1Cl` [Example A-56, N-(1-{[1-(5′-chloro-3-methyl-2,4′-bipyridin-2′-yl)piperidin-4-yl]carbonyl}piperidin-4-yl)pyridin-2-amine], the figures for the IC50 on human Smo and with Gli-Luc/MEF cells were 106 nM and 41.6 nM, respectively. In addition, the inhibition at 0.05 µM on human Smo was 80.5%.
On to `Cc1cnc(-c2ccnc(N3CCN(C(=O)CCS(C)(=O)=O)CC3)c2)c(C)c1` [Example A-141, 1-[4-(3,5-dimethyl-2,4′-bipyridin-2′-yl)piperazin-1-yl]-3-(methylsulfonyl)propan-1-one], for which the IC50 was found to be 11.6 nM on human Smo and 8.42 nM with Gli-Luc/MEF cells. Also, the inhibition at 0.05 µM on human Smo came to 96.3%.
On to `Cc1cccnc1-c1cc(N2CCN(C(=O)CC(C)(C)O)CC2)ncc1Cl` [Example A-47, 4-[4-(5′-chloro-3-methyl-2,4′-bipyridin-2′-yl)piperazin-1-yl]-2-methyl-4-oxobutan-2-ol], for which, on human Smo, the IC50 worked out at 21.7 nM and the inhibition at 0.05 µM came to 95.2%. This compound showed a half-inhibitory concentration (IC50) in the experiment on Gli-Luc/MEF cells of 36.3 nM.
On to `CC(=O)N1CCN(c2cc(-c3ncc(C)cc3C)c(Cl)cn2)CC1` [Example A-100, 2′-(4-acetylpiperazin-1-yl)-5′-chloro-3,5-dimethyl-2,4′-bipyridine], for which, at human Smo, the IC50 amounted to 113 nM and the inhibition at 0.05 µM stood at 85.6%. Moreover, the half-maximal inhibitory concentration (IC50) in the experiment on Gli-Luc/MEF cells worked out at 50.2 nM.
On to `Cc1cnc(-c2cc(N3CCC(NS(=O)(=O)C4CC4)CC3)ncc2Cl)c(C)c1` [Example A-127, N-[1-(5′-chloro-3,5-dimethyl-2,4′-bipyridin-2′-yl)piperidin-4-yl]cyclopropanesulfonamide], for which, on human Smo, the IC50 was 11.5 nM and the inhibition at 0.05 µM stood at 97.8%. In the experiment on Gli-Luc/MEF cells, this compound yielded a half-maximal inhibitory concentration (IC50) of 5.03 nM.
In the same order, the values of `Cc1cccnc1-c1cc(N2CCC(C(=O)N[C@H]3CC[C@H](O)CC3)CC2)ncc1Cl` (stereo in doubt) [Example A-71, 1-(5′-chloro-3-methyl-2,4′-bipyridin-2′-yl)-N-(trans-4-hydroxycyclohexyl)piperidine-4-carboxamide] are 72.9 nM, 85.7% and 39.4 nM.
Regarding `Cc1cccnc1-c1cc(N2CCC(CNCCS(C)(=O)=O)CC2)ncc1Cl` [Example A-96, N-{[1-(5′-chloro-3-methyl-2,4′-bipyridin-2′-yl)piperidin-4-yl]methyl}-2-(methylsulfonyl)ethanamine], the results for the concentration for half-maximal inhibition (IC50) at human Smo and with Gli-Luc/MEF cells were 102 nM and 62.5 nM, respectively. Moreover, the inhibition at 0.05 µM on human Smo was found to be 84.1%.
Consider `COCCS(=O)(=O)N1CCN(c2cc(-c3ncc(C)cc3C)c(Cl)cn2)CC1` [Example A-110, 5′-chloro-2′-{4-[(2-methoxyethyl)sulfonyl]piperazin-1-yl}-3,5-dimethyl-2,4′-bipyridine], for which, on human Smo, the half-maximal inhibitory concentration (IC50) was 29.2 nM and the inhibition at 0.05 µM amounted to 94.4%. The compound also displayed an IC50 with Gli-Luc/MEF cells of 12.4 nM.
On to `CS(=O)(=O)CCC(=O)N1CCN(c2ccc(Cl)c(-c3ccccn3)n2)CC1` [Example A-99, 3-chloro-6-{4-[3-(methylsulfonyl)propanoyl]piperazin-1-yl}-2,2′-bipyridine], for which, at human Smo, the half-maximal inhibitory concentration (IC50) worked out at 33.1 nM and the inhibition at 0.05 µM turned out to be 94.4%. This compound also displayed a half-maximal inhibitory concentration (IC50) in the experiment with Gli-Luc/MEF cells of 23.9 nM.
For the compound `Cc1cccnc1-c1cc(N2CCN(S(C)(=O)=O)CC2)ncc1Cl` [Example A-22, 5′-chloro-3-methyl-2′-[4-(methylsulfonyl)piperazin-1-yl]-2,4′-bipyridine], on human Smo, the IC50 is 110 nM and the inhibition at 0.05 µM was 81.5%. The compound also displayed an IC50 in the experiment with Gli-Luc/MEF cells of 42 nM.
For `CC(=O)N1CCN(c2cc(-c3ncccc3C)c(Cl)cn2)CC1` [Example A-23, 2′-(4-acetylpiperazin-1-yl)-5′-chloro-3-methyl-2,4′-bipyridine], in that order: 417 nM, 59.5% and 194 nM.
Regarding `Cc1cccnc1-c1cc(N2CCC(C(=O)NCCC3C(=O)Nc4ccccc43)CC2)ncc1Cl` (stereo not drawn) [Example A-61, 1-(5′-chloro-3-methyl-2,4′-bipyridin-2′-yl)-N-[2-(2-oxo-2,3-dihydro-1H-indol-3-yl)ethyl]piperidine-4-carboxamide], on human Smo, the 50% inhibitory concentration (IC50) worked out at 40.9 nM and the inhibition at 0.05 µM was 91.9%. For the same compound, half-maximal inhibition in the experiment with Gli-Luc/MEF cells (IC50) required 37.1 nM.
In the case of `Cc1cccnc1-c1cc(N2CCC(C(=O)NC3(c4ccccn4)CC3)CC2)ncc1Cl` [Example A-55, 1-(5′-chloro-3-methyl-2,4′-bipyridin-2′-yl)-N-(1-pyridin-2-ylcyclopropyl)piperidine-4-carboxamide], on human Smo, the IC50 was 63.3 nM and the inhibition at 0.05 µM was 83.7%. The compound also came in with a 50% inhibitory concentration (IC50) in the experiment with Gli-Luc/MEF cells of 25.2 nM.
For `Cc1cnc(-c2cc(N3CCN(CCS(C)(=O)=O)CC3)ncc2Cl)c(C)c1` [Example A-112, 5′-chloro-3,5-dimethyl-2′-{4-[2-(methylsulfonyl)ethyl]piperazin-1-yl}-2,4′-bipyridine], the half-inhibitory concentration (IC50) at human Smo is 124 nM; in the experiment with Gli-Luc/MEF cells, 25.3 nM. Also, the inhibition at 0.05 µM on human Smo turned out to be 72.9%.
As for `Cc1cccnc1-c1cc(N2CCC(C(=O)N[C@@H]3c4ccccc4C[C@@H]3O)CC2)ncc1Cl` [Example A-58, 1-(5′-chloro-3-methyl-2,4′-bipyridin-2′-yl)-N-[(1R,2S)-2-hydroxy-2,3-dihydro-1H-inden-1-yl]piperidine-4-carboxamide], at human Smo, the IC50 was 184 nM and the inhibition at 0.05 µM was determined as 70.3%. The same compound displayed an IC50 in the experiment with Gli-Luc/MEF cells of 38.8 nM.
For the compound `Cc1cccnc1-c1cc(N2CCN(c3ccc(C#N)cn3)CC2)ncc1Cl` [Example A-19, 6-[4-(5′-chloro-3-methyl-2,4′-bipyridin-2′-yl)piperazin-1-yl]nicatinonitrile], the half-maximal inhibitory concentration (IC50) at human Smo amounted to 37.5 nM; with Gli-Luc/MEF cells it was 10.1 nM. In addition, the inhibition at 0.05 µM on human Smo is 91.5%.
In the case of `Cc1cccnc1-c1cc(N2CCC(OCC(C)C)CC2)ncc1Cl` [Example A-38, 5′-chloro-2′-(4-isobutoxypiperidin-1-yl)-3-methyl-2,4′-bipyridine], at human Smo, the IC50 is 164 nM and the inhibition at 0.05 µM was 78.5%. In addition, half-maximal inhibition in the experiment with Gli-Luc/MEF cells (IC50) required 60.2 nM.
As for `Cc1ccc(-c2cc(N3CCC(NS(C)(=O)=O)CC3)ncc2Cl)nc1` [Example A-9, N-[1-(5′-chloro-5-methyl-2,4′-bipyridin-2′-yl)piperidin-4-yl]methanesulfonamide], at human Smo, the IC50 was found to be 75 nM and the inhibition at 0.05 µM was found to be 65%. In addition, the IC50 in the experiment on Gli-Luc/MEF cells turned out to be 226 nM.
